Experimental data taken from patent US11649222B2, “Compounds” (UNIVERSITETET I OSLO, priority 2016, dated 2023).
Values joined by “and” are separate entries in the source; they are usually repeats but may differ in a detail not shown here. Equal entries are not always repeated. “Also recorded” adds a separate entry of the source. Where two headings read alike, the source gives them in different places.

Columns and labels:
human hepG2 cells = assay: In vitro toxicity in human hepG2 cells (AlamarBlue viability); type: cell-based; details: for IC50: human hepG2 cells
Outline: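 HepG2 cells at 20,000/well adhered overnight, then were exposed to compounds at 1 to 1×10^−6 mM (DMSO ≤1%) for 24 h at 37 °C. Viability was read with AlamarBlue (10% final) after a further 4 h at 37 °C.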

C. freundii (NDM) = assay: Microbroth dilution MIC of meropenem ± 25 mg/L inhibitor; type: cell-based
Description: (§1) • Plate bacterial strain(s) on appropriate media: • Gram-negative bacteria with ESBLs or carbapenemases: green agar plates with 100 mg/L ampicillin • Gram-negative bacteria without β-lactamases: green agar plates • Gram-positive bacteria (Staphylococci and Enterococci): blood agar plates • Incubate o.n. at 37° C. Day 2: Prepare the Bacterial Inoculum: • Prepare a 0.5 McFarland suspension of bacteria in 0.85% NaCl. (Should be used within 15 min of preparation). • Dilute the 0.5 McFarland suspension 1:100 into MH broth. Check the inoculum by diluting the prepared bacterial suspension 1:100 (10 μl bacterial suspension+990 μl 0.85% NaCl). Plate 10 μl of the dilution on MH agar plates (×2). Incubate o.n. at 37° C., count the colonies and calculate the final CFU/ml inoculum in the plate by multiplying the average number of colonies with 10000 and divide by 2. The final inoculum should be between 3-7×10^5 CFU/ml. • Add 50 μl of the prepared bacterial suspension to each well in the microtiter plate except negative growth control. Preparation of Compounds/Antibiotics • Calculate the desired concentration-range and volume of the compounds/antibiotics in the assay. […] Dilute the stock solution in MH broth. Make subsequent 2-fold dilutions in MH broth of the desired concentrations if a concentration range is to be tested (remember the extra dilution factor in the assay plate). Always include extra volume for pipetting. Take into consideration stock solutions that are made in buffers that have an effect on bacterial growth (e.g. DMSO).

C. freundii (NDM-1) = assay: as above; type: cell-based
Description: as §1

E. cloacae (VIM) = assay: as above; type: cell-based
Description: as §1

E. coli (VIM-1) = assay: as above; type: cell-based
Description: as §1

K. pneumoniae (NDM-1) = assay: as above; type: cell-based; details: K. pneumoniae NDM-1 (several strains)
Description: as §1

K. pneumoniae (NDM-7) = assay: as above; type: cell-based
Description: as §1

K. pneumoniae (VIM) = assay: as above; type: cell-based
Description: as §1

[1] = tested on: M. morganii (OXA48+ NDM-1); assay: as above; type: cell-based
Description: as §1

P. mirabilis (NDM-1) = assay: as above; type: cell-based
Description: as §1

P. stuartii (NDM) = assay: as above; type: cell-based
Description: as §1

P. stuartii (NDM-1) = assay: as above; type: cell-based
Description: as §1

VIM-2 = VIM-2 (Escherichia coli, UniProt Q5U7L7); type: biochemical
Description: The eluent used was Chelex-treated HEPES 50 mM buffer, pH 7.5. […] In all experiments, 16 aliquots of 250 μL were taken from the PD-10 column runsout and enzyme activity was analysed. Enzyme activity was measured by adding Nitrocefin as a reporter substrate (final concentration of 50 μM).
To investigate if more extreme time-dependent and concentration-dependent conditions could restore enzyme activity, aliquots having final concentrations of 30 nM column-treated enzyme and 1000 μM Zn^2+ on ice and at room temperature over prolonged time.

rH glyoxylase II = rH glyoxylase II (Homo sapiens, UniProt Q16775); assay: Interaction with zinc-containing human enzyme; type: biochemical; details: 62.5-500 μM, 30 min, 25° C.
[2] = tested on: Klebsiella pneumoniae strain 50752501 harbouring NDM-1; assay: In vivo peritonitis infection study in neutropenic mice; parameters: Score at sampling: scale not given here; details: for Blood log CFU/ml mean / Blood log CFU/ml / Score at sampling / Pf log CFU/ml mean / Pf log CFU/ml: sampling T = 5; for Blood log CFU/ml / Score at sampling / Pf log CFU/ml: individual mice; for Pf log CFU/ml mean / Pf log CFU/ml: peritoneal fluid
Description: The purpose of this study was to investigate the synergy between a typical example of the present invention and a state of art carbapenem in a clinically relevant multiresistant Gram-negative bacterial strain harboring a metallo-β-lactamase in the treatment of live mice infected with the bacterial strain.
The mice were rendered neutropenic by injecting 0.5 ml cyclophosphamide solution intraperitoneally 4 days (approximately 200 mg/kg) and 1 day (approximately 100 mg/kg) prior to inoculation.
Fresh overnight colonies from a 5% Horse Blood Agar plate were suspended and diluted in sterile saline to approximately and 10^7 CFU/ml. Mice were inoculated intraperitoneally with 0.5 ml of the suspension. Approximately ½ hr prior to inoculation, mice were treated orally with 45 μl neurophen (20 mg ibuprofen/ml corresponding to approximately 30 mg/kg) as a pain relief.
Mice were treated subcutaneously in the neck region with.
Colony counts were determined from blood and peritoneal fluid at 1 and 5 hrs post inoculation. […] The mice were sacrificed immediately after blood sampling and a total of 2 ml sterile saline was injected i.p. and the abdomen gently massaged before it was opened and fluid sampled with a pipette. Each sample was then 10 fold serial diluted in saline and 20-μl spots, ranging from undiluted to a 10^6 dilution, were applied on agar plates in duplicates. […] All agar plates were incubated 18-22 hrs at 35° C. in ambient air.

[3] = tested on: strains producing Klebsiella pneumoniae carbapenemases (KPC); assay: Adjuvant activity with a carbapenem against KPC-producing strains; type: cell-based
[4] = Example 26 10 mg/kg s.c. + meropenem 33 mg/kg
[5] = Example 26 10 mg/kg s.c. + vehicle
[6] = Example 26 10 mg/kg s.c. + vehicle, 10 mg/kg
[7] = Example 26 33 mg/kg s.c. + meropenem 33 mg/kg
[8] = Example 26 33 mg/kg s.c. + vehicle
[9] = Example 26 33 mg/kg s.c. + vehicle, 33 mg/kg
[10] = Example 26 100 mg/kg s.c. + meropenem 33 mg/kg
[11] = Example 26 100 mg/kg s.c. + vehicle
[12] = Example 26 100 mg/kg s.c. + vehicle, 100 mg/kg
[13] = combination treatment with Example 26 and meropenem

CN(C[C@H](O)[C@@H](O)[C@H](O)[C@H](O)CO)C(=O)c1ccc(CN(Cc2ccccn2)Cc2ccccn2)nc1 [Example 26, 6-((bis(pyridin-2-ylmethyl)amino)methyl)-N-methyl-N-((2S,3R,4R,5R)-2,3,4,5,6-pentahydroxyhexyl)nicotinamide]
EC50 in hepG2 cells (human hepG2 cells; hepG2 cells): non-toxic
IC50 (human hepG2 cells; 24 hours, AlamarBlue, 8 replicates, read-out: IC50): > 1000 µM
IC50 (human hepG2 cells; read-out: IC50h): ≥ 116 µM
MIC meropenem + 25 mg/L Example 26 (C. freundii (NDM)): 0.06 µg/mL
MIC meropenem + 25 mg/L Example 26 (C. freundii (NDM-1)): 0.06 µg/mL
MIC meropenem + 25 mg/L Example 26 (E. cloacae (VIM)): <0.03 µg/mL
MIC meropenem + 25 mg/L Example 26 (E. coli (VIM-1)): <0.03 µg/mL
MIC meropenem + 25 mg/L Example 26 (K. pneumoniae (NDM-1)): 0.125 µg/mL
MIC meropenem + 25 mg/L Example 26 (K. pneumoniae (NDM-7)): <0.03 µg/mL
MIC meropenem + 25 mg/L Example 26 (K. pneumoniae (VIM)): 0.06 µg/mL
MIC meropenem + 25 mg/L Example 26 [1]: 1 µg/mL
MIC meropenem + 25 mg/L Example 26 (P. mirabilis (NDM-1)): 0.125 µg/mL
MIC meropenem + 25 mg/L Example 26 (P. stuartii (NDM)): 0.25 µg/mL
MIC meropenem + 25 mg/L Example 26 (P. stuartii (NDM-1)): 0.06 µg/mL
enzyme activity restored (VIM-2; 15 nM impaired enzyme spiked with ZnSO4 0-100 μM): 40%
residual enzyme activity (VIM-2; 50 nM VIM-2 + 140 mg/L Example 26, 1 hour on ice, PD-10 eluate fraction 5): 33%
irreversibility of VIM-2 inhibition (VIM-2; purified VIM-2, PD-10 column): irreversibly inhibits VIM-2; also recorded: irreversibly inhibited
interaction with rH glyoxylase II (rH glyoxylase II): does not interact with rH glyoxylase II
reduction of the CFU levels compared to vehicle treatment in blood and peritoneal fluid ([2]; 10-100 mg/kg Example 26 alone): did not result in reduction of the CFU levels
Blood log CFU/ml mean [2, 4]: 1.61 log CFU/ml
Blood log CFU/ml [2, 4]: 1.90 log CFU/ml and 1.00 log CFU/ml and 1.85 log CFU/ml and 1.70 log CFU/ml
Score at sampling [2, 4]: 2
Blood log CFU/ml mean [2, 5]: 5.88 log CFU/ml
Score at sampling [2, 5]: 2
Blood log CFU/ml [2, 6]: 6.02 log CFU/ml and 5.70 log CFU/ml and 5.90 log CFU/ml and 5.89 log CFU/ml
Blood log CFU/ml mean [2, 7]: 1.26 log CFU/ml
Blood log CFU/ml [2, 7]: 1.78 log CFU/ml (2×) and 1.00 log CFU/ml and 0.50 log CFU/ml
Score at sampling [2, 7]: 1
Blood log CFU/ml mean [2, 8]: 5.89 log CFU/ml
Score at sampling [2, 8]: 1
Blood log CFU/ml [2, 9]: 5.83 log CFU/ml and 5.54 log CFU/ml and 6.78 log CFU/ml and 5.40 log CFU/ml
Blood log CFU/ml mean [2, 10]: 1.18 log CFU/ml
Blood log CFU/ml [2, 10]: 1.30 log CFU/ml and 0.50 log CFU/ml and 1.90 log CFU/ml and 1.00 log CFU/ml
Score at sampling [2, 10]: 1
Blood log CFU/ml mean [2, 11]: 5.84 log CFU/ml
Score at sampling [2, 11]: 1
Blood log CFU/ml [2, 12]: 5.83 log CFU/ml and 6.05 log CFU/ml and 5.48 log CFU/ml and 6.02 log CFU/ml
lower CFU levels compared to vehicle treatment, blood [2, 13]: 3.95-4.38 log10
lower CFU levels compared to vehicle treatment, peritoneal fluid [2, 13]: 3.57-3.66 log10
Pf log CFU/ml mean [2, 4]: 3.83 log CFU/ml
Pf log CFU/ml [2, 4]: 4.18 log CFU/ml and 3.83 log CFU/ml and 3.60 log CFU/ml and 3.72 log CFU/ml
Pf log CFU/ml mean [2, 5]: 7.79 log CFU/ml
Pf log CFU/ml [2, 6]: 7.92 log CFU/ml and 7.68 log CFU/ml and 7.76 log CFU/ml and 7.81 log CFU/ml
Pf log CFU/ml mean [2, 7]: 3.80 log CFU/ml
Pf log CFU/ml [2, 7]: 3.88 log CFU/ml and 3.80 log CFU/ml and 3.68 log CFU/ml and 3.85 log CFU/ml
Pf log CFU/ml mean [2, 8]: 7.60 log CFU/ml
Pf log CFU/ml [2, 9]: 7.68 log CFU/ml and 7.51 log CFU/ml and 7.88 log CFU/ml and 7.35 log CFU/ml
Pf log CFU/ml mean [2, 10]: 3.74 log CFU/ml
Pf log CFU/ml [2, 10]: 3.65 log CFU/ml (2×) and 3.74 log CFU/ml and 3.92 log CFU/ml
Pf log CFU/ml mean [2, 11]: 7.93 log CFU/ml
Pf log CFU/ml [2, 12]: 8.24 log CFU/ml and 7.89 log CFU/ml and 7.63 log CFU/ml and 7.98 log CFU/ml
adjuvant activity with a carbapenem against KPC-producing strains [3]: does not show activity
